Experimental data taken from patent US8809341B2, “2,4-pyrimidinediamine compounds and uses as anti-proliferative agents” (Rigel Pharmaceuticals, Inc., priority 2003, dated 2014).

Columns and labels:
Type in all cases: cell-based
[1] = tested on: PC3; test: in vitro antiproliferation assay, PC3 (prostate)
Method: (§1) The IC50 values of various compounds against a various different tumor cell lines were determined using standard in vitro antiproliferation assays. The tumor cell lines tested were as follows: A549 (lung); H1299 (lung), ACHN (kidney/p53 wt), CAKI (renal cell carcinoma), NCI-H460 (lung); HCT116 (colon/p53w0; HELA (cervix/p53 wt), HUH7 (liver/p53 wt), HUVEC (primary endothelial), LNCAP (prostate), HT-29 (colon); MCF-7 (breast); MCF-7 (breast/ER positive), MDA MB435S (breast); MDA MB231 (breast/ER negative), DU145 (prostate); BxPC-3 (pancreatic); SKOV-3 (ovarian); HepG2 (hepatic), NDHF primary normal human dermal fibroblast), SKMEL28 (breast/p53mut), SKMEL5 (breast/p53 wt), U20S (bone) and PC3 (prostate). […] A blank indicates the specified compound was not tested against the specified cell line.
(§2) Many of the compounds were tested against other cell lines. Their activity is reported in TABLE 15, below, where +”, “−”, “−/+” or “+/−” values are as described for TABLES 1-14. Where the cell line includes a value in a parenthetical, the value indicates the seeding density at which the assay was performed

[2] = tested on: A549 cells; test: in vitro antiproliferation assay, A549 (lung); details: A549 (lung) cells
In short: (§3)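 IC50 values came from standard antiproliferation testing in cultured tumour cells; the A549 and H1299 lines are of lung origin.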

[3] = tested on: H1299 cells; test: in vitro antiproliferation assay, H1299 (lung); details: H1299 (lung) cells
In short: as §3

[4] = tested on: HCT116; test: in vitro antiproliferation assay, HCT116 (colon); details: HCT116 (colon); read-out: HCT116
Method: as §1, §2

IC50 [1] [µM]	IC50 ([2]; in vitro antiproliferation) [µM]	IC50 ([2]; antiproliferation) [µM]	Compound	further results
≤ 20	–	–	Oc1ccc(Nc2ncc(F)c(Nc3ccc(O)c(F)c3)n2)cc1F [compound 742]	–
> 20	> 20	–	Oc1cccc(Nc2ncc(F)c(Nc3ccc(OCCN4CCOCC4)cc3)n2)c1 [compound 746]	–
≤ 20	> 20	–	CNC(=O)COc1ccc(Nc2ncc(F)c(Nc3ccc(C(C)(C)C)cc3)n2)cc1 [compound 747]	–
> 20	> 20	–	CNC(=O)COc1cccc(Nc2ncc(F)c(Nc3ccc(C(C)(C)C)cc3)n2)c1 [compound 748]	–
> 20	> 20	–	CC(C)(C)c1ccc(Nc2nc(Nc3cccc(OCC(=O)O)c3)ncc2F)cc1 [compound 749]	–
≤ 20	> 20	–	CC(C)(C)c1ccc(Nc2nc(Nc3cccc(OCCO)c3)ncc2F)cc1 [compound 750]	–
> 20	< 20	–	CNC(=O)COc1cccc(Nc2ncc(F)c(Nc3ccc(OC(C)C)cc3)n2)c1 [compound 751]	–
> 20	> 20	–	CC(C)Oc1ccc(Nc2nc(Nc3cccc(OCC(=O)O)c3)ncc2F)cc1 [compound 752]	–
> 20	> 20	–	CNC(=O)COc1cccc(Nc2ncc(F)c(Nc3ccc(OC)c(OC)c3)n2)c1 [compound 753]	–
> 20	> 20	–	COc1ccc(Nc2nc(Nc3cccc(OCC(=O)NCC(O)CO)c3)ncc2F)cc1OC (centres unmarked) [compound 754]	–
> 20	–	–	O=C(COc1cccc(Nc2ncc(F)c(Nc3cccc(O)c3)n2)c1)N1CCNCC1 [compound 761]	–
≤ 20	> 20	–	O=C(COc1cccc(Nc2ncc(F)c(Nc3cccc(O)c3)n2)c1)N1CCOCC1 [compound 762]	–
> 20	> 20	–	CC(C)c1ccc(Nc2ncc(F)c(Nc3cccc(O)c3)n2)cc1 [compound 764]	–
≤ 20	≤ 20	–	COc1cc(Nc2ncc(F)c(Nc3cccc(O)c3)n2)cc(OC)c1 [compound 765]	–
> 20	> 20	–	CNC(=O)COc1cccc(Nc2ncc(F)c(Nc3cc(OC)cc(OC)c3)n2)c1 [compound 767]	–
≤ 20	≤ 20	–	CNC(=O)COc1cccc(Nc2ncc(F)c(Nc3ccc(C)c(OC)c3)n2)c1 [compound 790]	–
–	≤ 20	–	Cc1cc(C)cc(Nc2ncc(F)c(Nc3cc(C)cc(C)c3)n2)c1 [compound 841]	IC50 ([3]; in vitro antiproliferation): ≤ 20 µM; IC50 [4]: ≤ 20 µM
–	≤ 20	–	COc1cc(Nc2nc(Nc3cc(C)c(C)c(C)c3)ncc2F)cc(OC)c1 [compound 845]	IC50 ([3]; in vitro antiproliferation): ≤ 20 µM; IC50 [4]: ≤ 20 µM
–	–	≤ 20	COCCOc1cccc(Nc2ncc(F)c(Nc3cc(O)c(O)c(OCCOC)c3)n2)c1 [compound 933]	IC50 ([3]; antiproliferation): ≤ 20 µM; IC50 [4]: ≤ 20 µM
> 20	–	> 20	Fc1ccc(Nc2ncc(F)c(Nc3ccc(F)c(Cl)c3)n2)cc1Cl [compound 938]	–
≤ 20	–	> 20	Cc1cc(Nc2nc(Nc3cccc(OCC(=O)N4CCOCC4)c3)ncc2F)cc(C)c1O [compound 948]	–
> 20	–	> 20	Cc1cc(Nc2nc(Nc3cccc(OCC(=O)N4CCOCC4)c3)ncc2F)cc(Cl)c1O [compound 954]	–
> 20	–	> 20	CNC(=O)COc1cccc(Nc2nc(Nc3cccc(C(C)(C)C)c3)ncc2F)c1 [compound 956]	–
≤ 20	–	≤ 20	Cc1cc(Nc2nc(Nc3cccc(OCCN4CCOCC4)c3)ncc2F)cc(Cl)c1O [compound 957]	–
> 20	–	> 20	Cc1cc(Nc2ncc(F)c(Nc3cccc(C(C)(C)C)c3)n2)cc(Cl)c1O [compound 959]	–
> 20	–	> 20	CNC(=O)COc1cccc(Nc2ncc(F)c(Nc3cccc(C(C)(C)C)c3)n2)c1 [compound 960]	–
> 20	–	< 20	CC(C)(C)c1cccc(Nc2nc(Nc3cccc(OCC(=O)NCC(O)CO)c3)ncc2F)c1 (centres unmarked) [compound 961]	–
> 20	–	> 20	O=C(O)COc1cccc(Nc2ncc(F)c(Nc3cccc(O)c3)n2)c1 [compound 978]	–
> 20	–	≤ 20	Cc1cc(Nc2nc(Nc3cccc(OCC(=O)N4CCNCC4)c3)ncc2F)cc(C)c1O [compound 980]	–
